Assay results taken from US6399541B1, “Substituted 2,4-diamino-1,3,5-triazines as herbicides” (Bayer Aktiengesellschaft, priority 1997, dated 2002).

Columns and labels:
Abutilon = experiment: Pre-emergence test/greenhouse; format: in vivo; details: after three weeks
Protocol: (§1) Solvent: 5 parts by weight of acetone
(§2) Emulsifier: 1 part by weight of alkylaryl polyglycol ether
(§3) To produce a suitable preparation of active compound, 1 part by weight of active compound is mixed with the stated amount of solvent, the stated amount of emulsifier is added and the concentrate is diluted with water to the desired concentration.
(§4) Seeds of the test plants are sown in normal soil. After about 24 hours, the soil is sprayed with the preparation of active compound in such a way that the particular amounts of active compound desired are employed per unit area. The concentration of the spray liquor is chosen such that the particular amounts of active compound desired are applied in 1000 l of water/ha.
(§5) After three weeks, the degree of damage to the plants is assessed in % damage in comparison to the development of the untreated control.
(§6) 0%=no effect (as untreated control) 100%=total destruction

Alopecurus = experiment: Pre-emergence test/greenhouse; format: in vivo; details: after three weeks
Protocol: as §1, §2, §3, §4, §5, §6

Amaranthus = experiment: Pre-emergence test/greenhouse; format: in vivo; details: after three weeks
Protocol: as §1, §2, §3, §4, §5, §6

Setaria [1] = experiment: Pre-emergence test/greenhouse; format: in vivo; details: 1000 g of ai./ha, after three weeks
Protocol: as §1, §2, §3, §4, §5, §6

Cassia [2] = experiment: Post-emergence test/greenhouse; format: in vivo; details: 125 g of ai./ha, after three weeks
Protocol: as §1, §2, §3
as §4, with “Test plants which have a height” for “Seeds”, “5 to 15 cm” for “the test plants”, “are” for “are sown in normal soil. After about 24 hours, the soil is”, “applied” for “employed”
as §5
(§7) 0%=no effect (as untreated control)

Echinochloa = experiment: Post-emergence test/greenhouse; format: in vivo; details: 125 g of ai./ha, after three weeks
Protocol: as §1, §2, §3
as §4, with “Test plants which have a height” for “Seeds”, “5 to 15 cm” for “the test plants”, “are” for “are sown in normal soil. After about 24 hours, the soil is”, “applied” for “employed”
as §5, §7

Ipomoea [3] = experiment: Post-emergence test/greenhouse; format: in vivo; details: after three weeks
Protocol: as §1, §2, §3
as §4, with “Test plants which have a height” for “Seeds”, “5 to 15 cm” for “the test plants”, “are” for “are sown in normal soil. After about 24 hours, the soil is”, “applied” for “employed”
as §5, §7

Matricaria = experiment: Post-emergence test/greenhouse; format: in vivo; details: 125 g of ai./ha, after three weeks
Protocol: as §1, §2, §3
as §4, with “Test plants which have a height” for “Seeds”, “5 to 15 cm” for “the test plants”, “are” for “are sown in normal soil. After about 24 hours, the soil is”, “applied” for “employed”
as §5, §7

Setaria [4] = experiment: Post-emergence test/greenhouse; format: in vivo; details: 125 g of ai./ha, after three weeks
Protocol: as §1, §2, §3
as §4, with “Test plants which have a height” for “Seeds”, “5 to 15 cm” for “the test plants”, “are” for “are sown in normal soil. After about 24 hours, the soil is”, “applied” for “employed”
as §5, §7

Veronica = experiment: Post-emergence test/greenhouse; format: in vivo; details: after three weeks
Protocol: as §1, §2, §3
as §4, with “Test plants which have a height” for “Seeds”, “5 to 15 cm” for “the test plants”, “are” for “are sown in normal soil. After about 24 hours, the soil is”, “applied” for “employed”
as §5, §7

Xanthium [5] = experiment: Post-emergence test/greenhouse; format: in vivo; details: 125 g of ai./ha, after three weeks
Protocol: as §1, §2, §3
as §4, with “Test plants which have a height” for “Seeds”, “5 to 15 cm” for “the test plants”, “are” for “are sown in normal soil. After about 24 hours, the soil is”, “applied” for “employed”
as §5, §7

weeds [6] = experiment: Pre-emergence test; format: in vivo; details: cf. Table A
Protocol: as §1, §2, §3, §4, §5, §6

weeds [7] = experiment: Post-emergence test; format: in vivo; details: cf. Table B
Protocol: as §1, §2, §3
as §4, with “Test plants which have a height” for “Seeds”, “5 to 15 cm” for “the test plants”, “are” for “are sown in normal soil. After about 24 hours, the soil is”, “applied” for “employed”
as §5, §7

Avena fatua = experiment: Pre-emergence test/greenhouse; format: in vivo; details: 1000 g of ai./ha, after three weeks
Protocol: as §1, §2, §3, §4, §5, §6

Galium = experiment: Pre-emergence test/greenhouse; format: in vivo; details: 1000 g of ai./ha, after three weeks
Protocol: as §1, §2, §3, §4, §5, §6

Xanthium [8] = experiment: Pre-emergence test/greenhouse; format: in vivo; details: 1000 g of ai./ha, after three weeks
Protocol: as §1, §2, §3, §4, §5, §6

Polygonum = experiment: Post-emergence test/greenhouse; format: in vivo; details: 60 g of ai./ha, after three weeks
Protocol: as §1, §2, §3
as §4, with “Test plants which have a height” for “Seeds”, “5 to 15 cm” for “the test plants”, “are” for “are sown in normal soil. After about 24 hours, the soil is”, “applied” for “employed”
as §5, §7

Solanum = experiment: Post-emergence test/greenhouse; format: in vivo; details: 60 g of ai./ha, after three weeks
Protocol: as §1, §2, §3
as §4, with “Test plants which have a height” for “Seeds”, “5 to 15 cm” for “the test plants”, “are” for “are sown in normal soil. After about 24 hours, the soil is”, “applied” for “employed”
as §5, §7

Cassia [9] = experiment: Pre-emergence test/greenhouse; format: in vivo; details: 250 g of ai./ha, after three weeks
Protocol: as §1, §2, §3, §4, §5, §6

Ipomoea [10] = experiment: Pre-emergence test/greenhouse; format: in vivo; details: 250 g of ai./ha, after three weeks
Protocol: as §1, §2, §3, §4, §5, §6

Lolium = experiment: Pre-emergence test/greenhouse; format: in vivo; details: 250 g of ai./ha, after three weeks
Protocol: as §1, §2, §3, §4, §5, §6

Sorghum = experiment: Pre-emergence test/greenhouse; format: in vivo; details: 250 g of ai./ha, after three weeks
Protocol: as §1, §2, §3, §4, §5, §6

Structure (SMILES) | degree of damage, Abutilon (Abutilon; 1000 g of ai./ha) [%] | degree of damage, Alopecurus (Alopecurus; 1000 g of ai./ha) [%] | degree of damage, Amaranthus (Amaranthus; 1000 g of ai./ha) [%] | degree of damage, Cassia (Cassia [2]) [%] | degree of damage, Ipomoea (Ipomoea [3]; 125 g of ai./ha) [%] | degree of damage, Matricaria (Matricaria) [%] | degree of damage, Veronica (Veronica; 125 g of ai./ha) [%] | action against weeds compared with known compound (A) (weeds [6]) | activity against weeds compared with known compound (A) (weeds [7]) | also measured
CCC(Nc1nc(NC(C)=O)nc(C(C)F)n1)c1ccccc1 (racemic) [Example 2, 2-acetylamino-4-(1-fluoro-ethyl)-6-(1-phenyl-propylamino)-1,3,5-triazine] | 100 | 90 | 100 | 100 | 100 | 95 | 95 | considerably strong action against weeds than the known compound (A) | considerably stronger activity against weeds than the known compound (A) | degree of damage, Setaria (Setaria [1]): 70%; degree of damage, Echinochloa (Echinochloa): 80%; degree of damage, Setaria (Setaria [4]): 80%; degree of damage, Xanthium (Xanthium [5]): 80%; melting point: 118 °C
CCC(Nc1nc(N)nc(C(C)F)n1)c1ccccc1 (racemic) [Example 1, 2-amino-4-(1-fluoro-ethyl)-6-(1-phenyl-propyl-amino)-1,3,5-triazine] | 70 | 100 | 100 | 90 | 100 | 80 | 100 | considerably strong action against weeds than the known compound (A) | considerably stronger activity against weeds than the known compound (A) | degree of damage, Avena fatua (Avena fatua): 70%; degree of damage, Galium (Galium): 100%; degree of damage, Xanthium (Xanthium [8]): 100%; degree of damage, Ipomoea (Ipomoea [3]; 60 g of ai./ha): 100%; degree of damage, Polygonum (Polygonum): 100%; degree of damage, Solanum (Solanum): 95%; degree of damage, Veronica (Veronica; 60 g of ai./ha): 95%
CC(F)c1nc(N)nc(NC(C)c2ccccc2)n1 (racemic) [Example 16] |  |  |  |  |  |  |  | considerably strong action against weeds than the known compound (A) |  | degree of damage, Abutilon (Abutilon; 250 g of ai./ha): 80%; degree of damage, Alopecurus (Alopecurus; 250 g of ai./ha): 100%; degree of damage, Amaranthus (Amaranthus; 250 g of ai./ha): 100%; degree of damage, Cassia (Cassia [9]): 100%; degree of damage, Ipomoea (Ipomoea [10]): 100%; degree of damage, Lolium (Lolium): 100%; degree of damage, Sorghum (Sorghum): 95%
